Results published in BindingDB's records for PubMed 33309162 (Universita Degli Studi di Palermo, 2021).

These compounds were tested against PI3K catalytic subunit alpha (PIK3CA), rat (assay: Inhibition of PI3Kalpha in rat Rat1 cells reduction in phosphorylation of AKT at Ser473 residue incubated for 2 hrs by alpha screen assay).

IC50, > 10 µM:
N#Cc1c(N)ncnc1N1CSC[C@H]1c1nc2cccc(Cl)c2c(=O)n1-c1cccs1
Cn1nccc1-n1c([C@@H]2CSCN2c2ncnc(N)c2C#N)nc2cccc(Cl)c2c1=O
CN1CCN(C)/C(=N/c2ccc([N+](=O)[O-])cc2C(=O)Nc2ccccc2)C1
